Data reported in paper PMC6926478, “Structures of Respiratory Supercomplex I+III2 Reveal Functional and Conformational Crosstalk” (Molecular Cell, 2019).

Biological target: T1, SC I+III2 (complex I, NADH/FMN site) (Ovis aries, UniProt Z9LRO2FUZ7)
T1 construct: native supercomplex I+III2 from heart mitochondria, LMNG-extracted, amphipol A8-35 stabilised; complex I has 45 subunits, ~1 MDa; with NADH dehydrogenase [ubiquinone] flavoprotein 2, mitochondrial; NADH-ubiquinone oxidoreductase 75 kDa subunit, mitochondrial; NADH dehydrogenase [ubiquinone] iron-sulfur protein 2, mitochondrial; NADH dehydrogenase [ubiquinone] iron-sulfur protein 7, mitochondrial; NADH-ubiquinone oxidoreductase chain 1; Cytochrome b
Experiment: cryoEM structure, […] Å focused map of CI peripheral arm
Assay type: binding
Conditions: native cofactor

Cc1cc2nc3c(=O)[nH]c(=O)nc-3n(C[C@H](O)[C@H](O)[C@H](O)COP(=O)(O)O)c2cc1C [FMN]
cryoEM structure, 3.8 Å focused map of CI peripheral arm: The FMN, FeS clusters, and heme groups are shown colored by atom
